Source: patent US20210322520A1, “METHODS OF MODULATING CORTICOSTEROID RESPONSE” (priority 2019, published 2021)
Read-outs that look alike come from different tables or passages of the source. Blank lines part the entries; values can stand above or below the molecule they belong to.

How the values were obtained:
[1] = tested on: corticosterone levels in rats; assay: Corticosterone levels in rats after RCI or ACTH; assay type: in vivo, rat
Experimental: Studies were conducted to discover the differences between repository corticotropin injection (RCI) (i.e. Acthar® gel) and synthetic adrenal corticotropin compositions (referred to as ACTH herein) on corticosterone levels in rats.
RCI (10, 40, or 400 IU/kg) or ACTH (0.6, 1.2, or 2.4 mg/kg) was administered to Sprague Dawely rats, plasma samples collected and analyzed for corticosterone.
RCI and ACTH peak corticosterone and area under the curve (AUC) were evaluated.

[2] = Cortisol-equivalent (steroidogenic) exposure of methylprednisolone; assay type: in vivo, human; conditions: for plasma free cortisol-equivalent AUEC24SG / plasma total cortisol-equivalent AUEC24SG: 32 mg oral daily, mean; for EmaxSG / AUEC24SG[BA]: mean (SD); for TmaxSG: median (min, max); for AUEC24SG[BA]: baseline-corrected
Experimental: Whole blood samples were drawn from each subject at predefined time points over 24 hours after oral methylprednisolone administration on study Day 1 and Day 4 for determination of plasma total and free methylprednisolone concentrations. All subjects who were in both the PK and PD populations were included in the cortisol-equivalent exposure population.
Because oral methylprednisolone is known to suppress endogenous cortisol production, PD parameters for serum total and plasma free cortisol after administration of methylprednisolone were not calculated. Instead, the cortisol-equivalent (steroidogenic) concentration (CSG) of methylprednisolone was estimated. […] Therefore, a conversion factor of 5 was applied to the methylprednisolone concentration (ConcMPD). The following equation was used to estimate the steroidogenic concentration of methylprednisolone (CSG):
CSG=(5×ConcMPo)+ConcCortisol
CSG was used to estimate the following PD parameters for the steroidogenic concentration of plasma total and free methylprednisolone: maximum observed effect for the steroidogenic concentration (CSG) concentration-time profile (EmaxSG), time of EmaxSG (TmaxSG), and area under the effect curve for the CSG concentration-time profile from time 0 to 24 hours (AUEC24SG). Baseline-corrected AUEC24SG (AUEC24SG[BA]) was calculated by subtracting the baseline (Day-1) cortisol concentrations from the time-matched Day 1 steroidogenic concentration.

[3] = Phase 1 plasma pharmacokinetics in healthy subjects; assay type: in vivo, human; conditions: for Cmax / half-life / AUC(0-t): plasma; for RAUC0-24 (accumulation ratio): AUC0-24 Day 4 / Day 1; for time of mean peak plasma concentration: after oral dosing
Experimental: Baseline demographics were collected during the screening period between study Day −28 and Day −3. Subjects remained at the clinic from 2 days before the first dose of study drug (Day-2) until study Day 8.
Serum samples for total cortisol and plasma samples for free cortisol, total methylprednisolone, free methylprednisolone, and ACTH1-24 were analyzed by Syneos Health (Quebec City, Quebec, Canada); plasma samples for N25D porcine ACTH1-39 were analyzed by QPS Netherlands BV (Groningen, Netherlands). Concentrations for all analytes were determined using liquid chromatography-tandem mass spectrometry methods that were validated according to the US FDA Bioanalytical Method Validation Guidance (May 2018). […]
The plasma total and free methylprednisolone were determined using a validated LC-MS/MS method developed by Syneos Health (Quebec City, Quebec, Canada). The LC-MS/MS methods for plasma total and free methylprednisolone were conducted using an Atmospheric Pressure Ionization (API) 5000 mass spectrometer (AB Sciex, Toronto, Canada) with positive electrospray ionization and multiple reaction monitoring (precursor/product ion m/z: 375/161 for methylprednisolone; 381/363 for methylprednisolone-d6, which was included as internal standard). Quantitative analysis was accomplished on an ACE Excel 2 C18-PFP (50×3.0 mm, 2 μm) column. The mobile phases were Milli-Q type water/methanol with ammonium formate and formic acid (in different proportions). The LC was run on isocratic mode followed by a column flush. The calibration range for plasma total methylprednisolone concentration was 0.500 to 500 ng/mL with LLOQ of 0.500 ng/mL. The inter- and intra-run-precision (relative SD) were ≤7%, and 8%, while the intra-run accuracy was 100% to 112%. The calibration range for plasma free cortisol concentration was 200 to […]. The inter- and intra-run-precision (relative SD) were ≤18.5% and 3%, respectively, while the intra-run accuracy was 94% to 101%.
All subjects whose PK profile contained at least 4 consecutive quantifiable concentrations were included in the PK population.
All subjects whose PK profile contained at least 4 consecutive quantifiable plasma concentrations of N25D porcine ACTH1-39, ACTH1-24, or total and free methylprednisolone were in the PK population.
PK parameters were estimated using actual blood collection times by noncompartmental methods using Phoenix® WinNonlin® 8.1. (Certara USA, Inc.). AUC0-24, AUC0-last, and AUC0-inf were calculated using the linear log trapezoidal rule. Kei was calculated using linear regression on the terminal slope of the ln-concentration versus time curve. At least 3 time points (excluding Cmax) and r^2≥0.90 were required to calculate and retain Kel and its associated parameters (t1/2 and AUC0-inf).

[4] = Safety analyses (adverse events), phase 1 study; assay type: in vivo, human
Experimental: All subjects who received at least one dose of the study drug were in the safety population. Safety was assessed via adverse events (AEs), treatment-emergent AEs (TEAEs; events that occurred after the first dose of study drug and through study completion), serious TEAEs (TESAEs), physical examinations, vital signs, 12-lead electrocardiograms (ECGs), and clinical laboratory test findings collected throughout the study.

[5] = free cortisol (steroidogenic concentration), Day 1
[6] = free cortisol (steroidogenic concentration), Day 4
[7] = total cortisol (steroidogenic concentration), Day 1
[8] = total cortisol (steroidogenic concentration), Day 4
[9] = human, oral, 32 mg, plasma free methylprednisolone, Day 1, mean (SD)
[10] = human, oral, 32 mg, plasma free methylprednisolone, Day 4, mean (SD)

Molecule: ACTH
- reduction of corticosterone AUC between ACTH doses ([1]; ACTH 0.6, 1.2, 2.4 mg/kg): no significant reduction
- dose dependence of corticosterone peak ([1]; Sprague Dawely rats, plasma): not dose dependent
- time of peak corticosterone ([1]; Sprague Dawely rats, plasma, RCI 10, 40, 400 IU/kg, ACTH 0.6, 1.2, 2.4 mg/kg): 8 to 24 h

- mean exposure of plasma free methylprednisolone as share of plasma total methylprednisolone ([3]; both days (Day 1 and Day 4)): about 8%
- AUC(0-inf) [3, 9]: 106 ng·h/mL
- Tmax ([3]; human, oral, 32 mg, plasma total methylprednisolone, Day 1, median (min, max)): 2 h
- Cmax [3, 9]: 24.6 ng/mL
- half-life [3, 9]: 1.9 h
- AUC(0-t) ([3]; human, oral, 32 mg, plasma free methylprednisolone, Day 1, mean (SD), read-out: AUC0-last): 104 ng·h/mL
- AUC(0-t) ([3]; human, oral, 32 mg, plasma free methylprednisolone, Day 1, n = 1, read-out: AUC0-24): 176 ng·h/mL
- Cmax [3, 10]: 21.9 ng/mL
- half-life [3, 10]: 2 h
- AUC(0-t) ([3]; human, oral, 32 mg, plasma free methylprednisolone, Day 4, mean (SD), read-out: AUC0-last): 89.5 ng·h/mL
- AUC(0-t) ([3]; human, oral, 32 mg, plasma free methylprednisolone, Day 4, n = 1, read-out: AUC0-24): 145 ng·h/mL
- half-life ([3]; human, oral, 32 mg, plasma total methylprednisolone, Day 1, mean (SD)): 2.2 h
- half-life ([3]; human, oral, 32 mg, plasma total methylprednisolone, Day 4, mean (SD)): 2.4 h
- AUC(0-t) ([3]; human, oral, 32 mg, plasma total methylprednisolone, Day 4, mean (SD), read-out: AUC0-24): 1110 ng·h/mL
- AUC(0-t) ([3]; human, oral, 32 mg, plasma total methylprednisolone, Day 4, mean (SD), read-out: AUC0-last): 919 ng·h/mL
- Cmax ([3]; human, po, 32 mg, plasma total methylprednisolone, 32 mg oral daily, Day 1, mean (SD)): 198 ng/mL
- Cmax ([3]; human, po, 32 mg, plasma total methylprednisolone, 32 mg oral daily, Day 4, mean (SD)): 188 ng/mL
- AUC(0-t) ([3]; human, po, 32 mg, plasma total methylprednisolone, Day 1, mean (SD), read-out: AUC0-24): 1330 ng·h/mL
- AUC(0-t) ([3]; human, po, 32 mg, plasma total methylprednisolone, Day 1, mean (SD), read-out: AUC0-last): 1020 ng·h/mL
- AUC(0-inf) ([3]; human, po, 32 mg, plasma total methylprednisolone, Day 1, mean (SD)): 1030 ng·h/mL
- RAUC0-24 (accumulation ratio) ([3]; plasma free methylprednisolone, n = 1): 0.8 (NA)
- RAUC0-24 (accumulation ratio) ([3]; plasma free methylprednisolone, n = 1, listed as methylprednisolone): 0.8
- time of mean peak plasma concentration ([3]; plasma free methylprednisolone): 2 h
- RAUC0-24 (accumulation ratio) ([3]; plasma total methylprednisolone, mean (SD)): 0.9 (0.1)
- RAUC0-24 (accumulation ratio) ([3]; plasma total methylprednisolone, mean (SD), listed as methylprednisolone): 0.9
- time of mean peak plasma concentration ([3]; plasma total methylprednisolone): around 2 hours
Molecule: C[C@H]1C[C@@H]2[C@H]([C@@H](O)C[C@@]3(C)[C@H]2CC[C@]3(O)C(=O)CO)[C@@]2(C)C=CC(=O)C=C12 [Methylprednisolone, methylprednisolone]
- plasma free cortisol-equivalent AUEC24SG ([2]; Day 1): 572.0 ng·h/mL
- plasma total cortisol-equivalent AUEC24SG ([2]; Day 1): 6480.0 ng·h/mL
- plasma free cortisol-equivalent AUEC24SG ([2]; Day 4): 492.0 ng·h/mL
- plasma total cortisol-equivalent AUEC24SG ([2]; Day 4): 5440.0 ng·h/mL
- EmaxSG [2, 5]: 124.0 (37.2) ng/mL
- TmaxSG [2, 5]: 2.0 (1.0, 4.0) h
- EmaxSG [2, 6]: 109.0 (26.7) ng/mL
- TmaxSG [2, 6]: 2.0 (1.0, 4.0) h
- AUEC24SG[BA] ([2]; free cortisol, Day 1): 553.0 (187.0) h*ng/mL
- AUEC24SG[BA] ([2]; free cortisol, Day 4): 475.0 (140.0) h*ng/mL
- EmaxSG [2, 7]: 1040.0 (251.0) ng/mL
- TmaxSG [2, 7]: 2.0 (2.0, 4.0) h
- EmaxSG [2, 8]: 959.0 (188.0) ng/mL
- TmaxSG [2, 8]: 2.0 (1.0, 4.0) h
- AUEC24SG[BA] ([2]; total cortisol, Day 1): 4860.0 (1680.0) h*ng/mL
- AUEC24SG[BA] ([2]; total cortisol, Day 4): 4010.0 (1260.0) h*ng/mL
- subjects experiencing TESAEs (in words) ([4]; TESAE of pulmonary embolism in the synthetic ACTH1-24 depot group): no subjects
- AEs ([4]; n = 16 per group): 17 No.
- Any TESAE ([4]; n = 16 per group): 0 No. (%)
- Subjects with any TEAE ([4]; n = 16 per group): 10 (62.5) No. (%)
- TEAE: Contusion ([4]; n = 16 per group): 1 (6.3) No. (%)
- TEAE: Dysuria ([4]; n = 16 per group): 0 No. (%)
- TEAE: Headache ([4]; n = 16 per group): 2 (12.6) No. (%)
- TEAE: Heart palpitations ([4]; n = 16 per group): 2 (12.5) No. (%)
- TEAE: Injection site reaction ([4]; n = 16 per group): 0 No. (%)
- TEAE: Insomnia ([4]; n = 16 per group): 0 No. (%)
- TEAE: Somnolence ([4]; n = 16 per group): 0 No. (%)
- TESAE: Pulmonary embolism ([4]; n = 16 per group): 0 No. (%)
